The target in this assay is T1, pregnane X receptor (PXR) (Homo sapiens, UniProt O75469).
T1 construct: gene NR1I2
T1 sequence (O75469 106-434): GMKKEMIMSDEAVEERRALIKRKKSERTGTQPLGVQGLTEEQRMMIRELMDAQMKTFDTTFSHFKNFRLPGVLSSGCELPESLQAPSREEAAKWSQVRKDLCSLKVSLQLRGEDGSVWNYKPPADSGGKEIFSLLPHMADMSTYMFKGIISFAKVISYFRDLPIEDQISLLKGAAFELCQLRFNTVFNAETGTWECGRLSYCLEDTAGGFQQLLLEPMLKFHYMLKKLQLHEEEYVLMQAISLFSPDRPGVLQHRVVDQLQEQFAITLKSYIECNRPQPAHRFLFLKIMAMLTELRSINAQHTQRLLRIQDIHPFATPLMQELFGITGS
Description: biochemical.

Among the data in article PMC12681940, “Schisandrin B Targets PXR to Enhance Bile Acid Metabolism and Alleviate ANIT-Induced Cholestatic Liver Injury via Dual Pathways” (International Journal of Biological Sciences, 2026) are Kd values, retold here.

For `COc1cc2c(c(OC)c1OC)-c1c(cc3c(c1OC)OCO3)CC(C)C(C)C2` (stereo not shown) [Sin B, Schisandrin B], binding was characterised by a dissociation constant (Kd) of 6.6 µM.
